The results in this text go back to patent US20090012118A1, “Kynurenic Acid Amide Derivatives as Nr2b Receptor Antagoni” (priority 2004, published 2009).

One assay addresses T1, NR1a/NR2B NMDA receptor (Rattus norvegicus, UniProt P35439+Q00960).
T1 construct: expressed in transfected cells
The experiment in a line: Functional NMDA antagonism, fluorimetric intracellular calcium measurement on HEK293 cells expressing NR1a/NR2B. Type of assay: cell-based. How it is done:
Compounds were tested for their inhibitory action on NMDA evoked cytosolic calcium elevations in fluorescent calcium measurements. Studies were performed 48-72 h after addition of the inducing agent. Ketamine (500 μM) was also present during the induction in order to prevent cytotoxicity.
Since NMDA receptors are known to be permeable to calcium ions upon excitation, the extent of NMDA receptor activation, and its inhibition by functional antagonists can be characterized by measuring the rise in the intracellular calcium concentration following agonist (NMDA) application onto the cells.
The intracellular calcium measurements are carried out on HEK293 cells expressing NR1a and NR2B or NR2A NMDA receptor subunits.
(§1) Loading is stopped by washing twice with the solution used also during the measurement (140 mM NaCl, 5 mM KCl, 2 mM CaCl2, 5 mM HEPES [4-(2-hydroxyethyl)-1-piperazineethane-sulfonic acid], 5 mM HEPES-Na, 20 mM glucose, 10 μM glycine, pH=7.4). Then the test compound dissolved in the above solution (90 μl/well) is added. Intracellular calcium measurements are carried out with a plate reader fluorimeter. A rise in Fluo-4-fluorescence that reflects the intracellular calcium concentration is induced by application of 200 μM NMDA. Inhibitory potency of the test compound is assessed by measuring the reduction in the calcium elevation in the presence of different concentrations of the compound.
(§2) Inhibitory potency of a compound at a single concentration point is expressed as percent inhibition of the control NMDA response. For NR1a/NR2B expressing cells concentration-inhibition curves are produced. Sigmoidal concentration-inhibition curves are fitted over the data and IC50 values are defined as the concentration that produces half of the maximal inhibition that could be achieved with the compound. Mean IC50 values are derived from at least three independent experiments. For NR1-3/NR2A expressing cells antagonism of NMDA induced rise in intracellular calcium concentration by compounds of the present invention and reference compounds was tested at 10 and 15 microM concentration, respectively.
A general note: Calcium flux is commonly read through the fluorescence of an indicator in the cells.

Assay [1] deals with T2, NR1-3/NR2A NMDA receptor (Homo sapiens, UniProt Q05586+Q12879).
T2 construct: expressed in transfected cells
The experiment in a line: Functional NMDA antagonism, fluorimetric intracellular calcium measurement on HEK293 cells expressing NR1-3/NR2A. Set-up: NR1-3/NR2A % inhibition: dose or concentration left out as unconfirmed. The following applies: for inhibition at 10 µM: reference compounds; for inhibition at 15 µM: NMDA evoked calcium rise. Type of assay: cell-based. How it is done: (§3) (2003)]. […] Compounds were tested for their inhibitory action on NMDA evoked cytosolic calcium elevations in fluorescent calcium measurements. Studies were performed 48-72 h after addition of the inducing agent. Ketamine (500 μM) was also present during the induction in order to prevent cytotoxicity.
(§4) Since NMDA receptors are known to be permeable to calcium ions upon excitation, the extent of NMDA receptor activation, and its inhibition by functional antagonists can be characterized by measuring the rise in the intracellular calcium concentration following agonist (NMDA) application onto the cells. Since there is very high sequence homology between rat and human NMDA receptors (99, 95, 97% for NR1, NR2A, and NR2B subunits, respectively), it is believed that there is little, if any, difference in their pharmacological sensitivity.
(§5) The intracellular calcium measurements are carried out on HEK293 cells expressing NR1a and NR2B or NR2A NMDA receptor subunits. The cells are plated onto standard 96-well microplates and the cultures are maintained in an atmosphere of 95% air −5% CO2 at 37° C. until testing.
as §1, with “The cells are loaded with a fluorescent Ca^2+-sensitive dye, Fluo-4/AM (2-2.5 μM) prior to testing. Loading” for “Loading”
as §2

Assay [2] deals with NMRI mice. The assay is described as follows: Mouse formalin test (second phase, licking/biting time). The following applies: 15 min before formalin, licking time 20-25 min after formalin; for ED50: Mus musculus, po; for ED50 in mouse formalin test: p.o. Type of assay: in vivo. How it is done: Injection of diluted formalin into the hind paw of rats or mice is known to elicit a biphasic pain-related behavior measured as time spent by licking/biting of the injured paw. The second phase is generally defined as pain related events detected in the 15-60 min. time interval after formalin injection. It is known that NMDA receptors are involved in the second phase of response to formalin injection and this behavioral response is sensitive to blockade of NMDA receptors [Dickenson, A. and Besson J.-M. (Editors): Chapter 1, pp. 6-7: Animal models of Analgesia; and Chapter 8, pp. 180-183: Mechanism of Central Hypersensitivity: Excitatory Amino Acid Mechanisms and Their Control—In Pharmacology of Pain. Springer-Verlag (Berlin) 1997.] Therefore, we used the second phase of formalin test to characterize the efficacy of compounds in vivo. Inhibition of the second phase of response is considered to indicate an analgesic effect against chemically-induced persistent pain [Hunskaar, S., et al.: Formalin Test in Mice, a Useful Technique for Evaluating Mild Analgesics, Journal of Neuroscience Methods, 14 (1985) 69-76.]
Male albino NMRI mice (20-25 g) were used. Prior to the experiment any solid food was withdrawn for approx. 16 hours but the animals had free access to 20% glucose solution. The animals were allowed 1 hour acclimatization period in a glass cylinder (cc. 15 cm in diameter), then moved to an identical cylinder with a mirror placed behind to facilitate observation. The test substances were suspended in 5% tween-80 (10 ml per kg body weight). and administered orally by gavage 15 min before the formalin injection (20 μl of 1% formalin in 0.9% saline injected subcutaneously into the dorsal surface of the right hind paw). The time spent by licking and biting of the injected paw was measured from 20 to 25 min. after the formalin injection.

The subject of assay [3] is NMRI mice. Described as above. It is filed as in vivo.
In assay [4] the target is T3, NR1-3/NR2A NMDA receptor (Homo sapiens, UniProt Q12879).
T3 construct: expressed in transfected cells
The experiment in a line: Functional NMDA antagonism, fluorimetric intracellular calcium measurement on HEK293 cells expressing NR1-3/NR2A. The following applies: reference compounds. Also on record: NR1-3/NR2A % inhibition: dose or concentration left out as unconfirmed. It is filed as cell-based. How it is done:
as §3, §4, §5
as §1, with “The cells are loaded with a fluorescent Ca^2+-sensitive dye, Fluo-4/AM (2-2.5 μM) prior to testing. Loading” for “Loading”
as §2

[5] abbreviates: HEK293 cells expressing NR1a/NR2B, reference compounds, read-out: NR1a/NR2B IC50.
The mark [6] stands for this setting: HEK293 cells expressing NR1a/NR2B, 200 μM NMDA evoked calcium rise, compounds of the invention, read-out: NR1a/NR2B IC50.

Broadly, the inhibition is the change of the read-out against control, counted positive when it falls. As usually defined, the ED50 is the dose that gives a 50% effect, or the effect in half of the subjects.

Like-named read-outs stand apart in the source and are kept apart here.

T2 sequence (Q12879 23-1464, other chains not shown): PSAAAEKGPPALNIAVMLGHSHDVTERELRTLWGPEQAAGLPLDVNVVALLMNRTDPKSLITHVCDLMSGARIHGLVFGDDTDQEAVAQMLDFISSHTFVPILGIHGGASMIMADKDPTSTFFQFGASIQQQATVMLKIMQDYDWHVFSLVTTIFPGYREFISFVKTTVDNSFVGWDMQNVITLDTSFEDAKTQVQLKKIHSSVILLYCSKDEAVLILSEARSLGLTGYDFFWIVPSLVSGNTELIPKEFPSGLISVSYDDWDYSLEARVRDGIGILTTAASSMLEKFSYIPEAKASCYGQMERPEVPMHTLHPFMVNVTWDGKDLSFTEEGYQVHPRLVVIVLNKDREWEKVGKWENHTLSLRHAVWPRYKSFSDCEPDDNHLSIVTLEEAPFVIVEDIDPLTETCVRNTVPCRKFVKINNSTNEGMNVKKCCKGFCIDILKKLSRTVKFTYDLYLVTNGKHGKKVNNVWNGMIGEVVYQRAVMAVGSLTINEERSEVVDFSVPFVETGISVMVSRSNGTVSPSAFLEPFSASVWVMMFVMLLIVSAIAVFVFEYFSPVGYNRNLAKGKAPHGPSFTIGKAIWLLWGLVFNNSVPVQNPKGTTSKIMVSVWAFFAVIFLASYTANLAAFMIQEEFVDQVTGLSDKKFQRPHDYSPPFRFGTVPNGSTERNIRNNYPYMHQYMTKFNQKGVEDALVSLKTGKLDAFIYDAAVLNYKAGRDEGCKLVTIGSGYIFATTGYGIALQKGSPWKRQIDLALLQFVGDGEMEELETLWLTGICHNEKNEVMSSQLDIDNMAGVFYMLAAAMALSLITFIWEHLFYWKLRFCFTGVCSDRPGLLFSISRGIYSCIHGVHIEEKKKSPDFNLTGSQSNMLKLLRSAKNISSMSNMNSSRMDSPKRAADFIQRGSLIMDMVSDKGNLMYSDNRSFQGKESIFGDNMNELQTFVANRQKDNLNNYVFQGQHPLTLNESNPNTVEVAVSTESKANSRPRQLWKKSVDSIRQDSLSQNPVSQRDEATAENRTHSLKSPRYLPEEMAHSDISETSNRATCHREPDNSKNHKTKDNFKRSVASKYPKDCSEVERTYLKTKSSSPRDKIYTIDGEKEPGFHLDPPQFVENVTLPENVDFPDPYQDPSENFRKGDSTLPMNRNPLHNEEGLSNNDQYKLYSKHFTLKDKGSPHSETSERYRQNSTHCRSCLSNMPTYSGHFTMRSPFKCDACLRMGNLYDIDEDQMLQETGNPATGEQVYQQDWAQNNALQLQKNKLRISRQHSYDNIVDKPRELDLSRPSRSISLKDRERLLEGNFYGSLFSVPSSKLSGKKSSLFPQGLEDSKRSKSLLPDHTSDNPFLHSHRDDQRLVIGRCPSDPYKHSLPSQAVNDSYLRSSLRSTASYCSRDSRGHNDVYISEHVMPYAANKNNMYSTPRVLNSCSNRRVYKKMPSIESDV
T1 sequence (Q00960 27-1482, other chains not shown): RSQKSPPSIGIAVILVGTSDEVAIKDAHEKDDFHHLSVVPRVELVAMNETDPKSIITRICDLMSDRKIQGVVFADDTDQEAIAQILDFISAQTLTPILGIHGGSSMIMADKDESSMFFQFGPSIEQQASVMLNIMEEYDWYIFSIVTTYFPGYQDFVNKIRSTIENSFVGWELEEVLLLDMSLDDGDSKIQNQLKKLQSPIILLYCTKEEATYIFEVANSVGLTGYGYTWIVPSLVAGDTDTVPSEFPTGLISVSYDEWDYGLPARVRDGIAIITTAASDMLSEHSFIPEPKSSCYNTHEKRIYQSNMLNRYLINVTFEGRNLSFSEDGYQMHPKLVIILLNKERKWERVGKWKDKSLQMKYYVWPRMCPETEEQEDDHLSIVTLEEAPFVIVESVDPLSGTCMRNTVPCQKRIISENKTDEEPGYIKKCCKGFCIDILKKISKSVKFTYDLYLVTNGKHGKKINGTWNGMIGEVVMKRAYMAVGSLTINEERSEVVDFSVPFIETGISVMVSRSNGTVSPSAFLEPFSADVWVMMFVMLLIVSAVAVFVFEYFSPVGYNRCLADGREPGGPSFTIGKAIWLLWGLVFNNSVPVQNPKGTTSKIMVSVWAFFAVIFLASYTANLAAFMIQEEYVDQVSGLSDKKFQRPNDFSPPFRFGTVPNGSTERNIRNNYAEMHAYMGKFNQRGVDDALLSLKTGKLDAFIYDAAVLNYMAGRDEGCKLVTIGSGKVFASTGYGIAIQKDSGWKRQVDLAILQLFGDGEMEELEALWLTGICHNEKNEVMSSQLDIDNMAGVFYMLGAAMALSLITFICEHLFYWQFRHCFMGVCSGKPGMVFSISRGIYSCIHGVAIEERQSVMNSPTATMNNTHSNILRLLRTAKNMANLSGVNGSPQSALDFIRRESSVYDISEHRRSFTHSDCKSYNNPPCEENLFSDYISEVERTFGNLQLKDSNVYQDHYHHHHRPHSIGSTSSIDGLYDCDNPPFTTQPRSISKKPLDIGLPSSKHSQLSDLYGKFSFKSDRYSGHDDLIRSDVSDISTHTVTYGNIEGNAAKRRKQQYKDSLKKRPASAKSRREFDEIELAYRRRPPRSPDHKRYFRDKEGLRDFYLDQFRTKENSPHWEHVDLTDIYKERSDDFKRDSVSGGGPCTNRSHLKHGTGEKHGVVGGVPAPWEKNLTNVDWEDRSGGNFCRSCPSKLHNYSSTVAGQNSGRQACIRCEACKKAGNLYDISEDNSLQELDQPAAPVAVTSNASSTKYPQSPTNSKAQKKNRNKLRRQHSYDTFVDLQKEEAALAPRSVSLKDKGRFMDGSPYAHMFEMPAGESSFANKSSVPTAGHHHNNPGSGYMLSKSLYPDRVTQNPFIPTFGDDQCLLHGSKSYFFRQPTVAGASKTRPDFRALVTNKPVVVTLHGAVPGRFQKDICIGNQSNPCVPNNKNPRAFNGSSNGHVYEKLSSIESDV
T3 sequence (Q12879 23-1464, other chains not shown): as the sequence (Q12879 23-1464, other chains not shown) above

With `O=c1[nH]c2ccc([S+]([O-])CCN3CCC(Cc4ccc(F)cc4)CC3)cc2o1` (centres unmarked) [CI-1041, 6-{2-[4-(4-fluoro-benzyl)-piperidin-1-yl]-ethanesulfinyl}-3H-benzooxazol-2-one, reference compound], at NR1a/NR2B NMDA receptor, the IC50 was 8.4 nM. Besides, on NR1-3/NR2A NMDA receptor [1], the inhibition at 10 µM was 21%. Further, it took a dose of 2.4 mg/kg to reach the 50% effect level in the assay on NMRI mice [2] (ED50).
In the case of `C[C@@H]([C@@H](O)c1ccc(O)cc1)N1CCC(O)(c2ccccc2)CC1` [CP 101,606, (1S,2S)-1-(4-hydroxyphenyl)-2-(4-hydroxy-4-phenylpiperidine-1-yl)-1-propanol, reference compound], the inhibition at 10 µM on NR1-3/NR2A NMDA receptor [1] was 2.5%. Besides, the median effective dose (ED50) in the assay with NMRI mice [2] and in the assay on NMRI mice [3] (sc) was greater than 20 mg/kg each time.
Turning to `Cc1ccc(CC2(O)CCN(CCOc3ccc(O)cc3)CC2)cc1` [Co-101244, 1-[2-(4-hydroxyphenoxy)ethyl]-4-hydroxy-4-(4-methylbenzyl)piperidine, reference compound], on NR1a/NR2B NMDA receptor (setting [5]), the IC50 was determined as 4.8 nM. Besides, at NR1-3/NR2A NMDA receptor [1], the inhibition at 10 µM is -8.7%. Further, in the assay on NMRI mice [2], the “ED50 in mouse formalin test” value is “inactive”. This compound yielded a median effective dose (ED50) with NMRI mice [3] (ip) of 5.9 mg/kg.
With `Oc1ccc(OCCN2CCC(Cc3ccc(F)cc3)CC2)cc1` [Co-111103, 1-[2-(4-hydroxyphenoxy)ethyl]-4-(4-fluorobenzyl)piperidine, reference compound], in the assay on NMRI mice [2], the median effective dose (ED50) is greater than 20 mg/kg.
For the compound `O=C(CCN1CCC(Cc2ccc(F)cc2)CC1)c1ccc2[nH]c(=O)oc2c1` [EMD 95885, reference compound], the IC50 on NR1a/NR2B NMDA receptor (setting [5]) turned out to be 48 nM. In addition, the NR1-3/NR2A % inhibition at NR1-3/NR2A NMDA receptor [4] was 0.1%. Also, the “ED50 in mouse formalin test” value in the assay on NMRI mice [2] is 3.7 mg/kg.
Consider `O=C(c1cc(=O)c2cc(O)ccc2[nH]1)N1CCC(Cc2ccc(F)cc2)CC1` [Example 1, 2-[4-(4-Fluoro-benzyl)-piperidine-1-carbonyl]-6-hydroxy-1H-quinolin-4-one], for which, on NR1a/NR2B NMDA receptor (setting [6]), the IC50 was 4 nM. The inhibition at 15 µM at NR1-3/NR2A NMDA receptor [1] is -0.9%. For the same compound, in the assay on NMRI mice [2], the 50% effective dose (ED50) was found to be 9.5 mg/kg.
Consider `O=C(c1cc(=O)c2cc(O)ccc2[nH]1)N1CCC(Cc2ccccc2)CC1` [Example 2, 2-(4-Benzyl-piperidine-1-carbonyl)-6-hydroxy-1H-quinolin-4-one], for which the IC50 on NR1a/NR2B NMDA receptor (setting [6]) turned out to be 3.7 nM. For the same compound, the inhibition at 15 µM on NR1-3/NR2A NMDA receptor [1] was 7%. This compound had an ED50 in the assay with NMRI mice [2] greater than 20 mg/kg.
The matching figures for `Cc1ccc(CC2CCN(C(=O)c3cc(=O)c4cc(O)ccc4[nH]3)CC2)cc1` [Example 3, 6-Hydroxy-2-[4-(4-methyl-benzyl)-piperidine-1-carbonyl]-1H-quinolin-4-one]: 3.8 nM, -2.4% and 8.9 mg/kg.
For `O=C(c1cc(=O)c2cc(O)ccc2[nH]1)N1CCC(Cc2ccc(Cl)cc2)CC1` [Example 4, 2-[4-(4-Chloro-benzyl)-piperidine-1-carbonyl]-6-hydroxy-1H-quinolin-4-one] the same measures were 1.9 nM, -5.1% and greater than 20 mg/kg.
In the case of `O=C(c1cc(=O)c2cc(O)ccc2[nH]1)N1CCC(OCc2ccccc2)CC1` [Example 5, 2-(4-Benzyloxy-piperidine-1-carbonyl)-6-hydroxy-1H-quinolin-4-one], the IC50 on NR1a/NR2B NMDA receptor (setting [6]) was 21.5 nM. Moreover, the inhibition at 15 µM on NR1-3/NR2A NMDA receptor [1] came out at 5.7%.
For the compound `O=C(c1cc(=O)c2cc(O)ccc2[nH]1)N1CCC(COc2ccccc2)CC1` [Example 6, 6-Hydroxy-2-(4-Phenoxymethyl-piperidine-1-carbonyl)-1H-quinolin-4-one], the IC50 at NR1a/NR2B NMDA receptor (setting [6]) amounted to 8.9 nM. Also, the inhibition at 15 µM at NR1-3/NR2A NMDA receptor [1] amounted to 14%. The compound also showed a median effective dose (ED50) in the assay on NMRI mice [2] of 0.46 mg/kg.
As for `O=C(c1cc(=O)c2cc(O)ccc2[nH]1)N1CCC(Oc2ccc(Cl)cc2)CC1` [Example 7], the IC50 at NR1a/NR2B NMDA receptor (setting [6]) was determined as 5.1 nM. At NR1-3/NR2A NMDA receptor [1], the inhibition at 15 µM was determined as 5.1%. In the assay with NMRI mice [2], this compound showed a 50% effective dose (ED50) greater than 20 mg/kg.
As for `Cc1ccc(OC2CCN(C(=O)c3cc(=O)c4cc(O)ccc4[nH]3)CC2)cc1` [Example 8, 6-Hydroxy-2-(4-p-tolyloxy-piperidine-1-carbonyl)-1H-quinolin4-one], on NR1a/NR2B NMDA receptor (setting [6]), the IC50 is 3.3 nM. The inhibition at 15 µM at NR1-3/NR2A NMDA receptor [1] is -3.5%. This compound yielded a median effective dose (ED50) in the assay on NMRI mice [2] of 8.2 mg/kg.
The matching figures for `O=C(c1cc(=O)c2cc3[nH]c(=O)oc3cc2[nH]1)N1CCC(Cc2ccccc2)CC1` [Example 9, 6-(4-Benzyl-piperidine-1-carbonyl)-1,5-dihydro-oxazolo[4,5-g]quinoline-2,8-dione]: 5.6 nM, -2.1% and greater than 20 mg/kg.
With `O=C(c1cc(=O)c2cc(O)ccc2[nH]1)N1CCC(Oc2ccccc2)CC1` [Example 10, 6-Hydroxy-2-(4-phenoxy-piperidine-1-carbonyl)-1H-quinolin-4-one], the IC50 on NR1a/NR2B NMDA receptor (setting [6]) stood at 28 nM. Besides, the inhibition at 15 µM on NR1-3/NR2A NMDA receptor [1] came out at 0.2%.
Turning to `CC(CN1CCC(Cc2ccccc2)CC1)C(O)c1ccc(O)cc1` (stereo not drawn) [Ro 25.6981, R—(R*,S*)-1-(4-hydroxyphenyl)-2-methyl-3-[4-(phenylmethyl)piperidin-1-yl]-1-propanol, reference compound], at NR1a/NR2B NMDA receptor, the IC50 was determined as 57 nM. Moreover, at NR1-3/NR2A NMDA receptor [1], the inhibition at 10 µM worked out at 1%. Also, the “ED50 in mouse formalin test” value in the assay on NMRI mice [2] was “inactive”. Further, the median effective dose (ED50) with NMRI mice [3] (ip) came to 5.1 mg/kg.
With `CC(C(O)c1ccc(O)cc1)N1CCC(Cc2ccccc2)CC1` (stereo not drawn) [ifenprodil, erythro-2-(4-benzylpiperidino)-1-(4-hydroxyphenyl)-1-propanol, reference compound], the inhibition at 10 µM on NR1-3/NR2A NMDA receptor [1] was -2.7%.
